A short description of data set [1]: Stability of sulfonated peracids in aqueous solution, half time. In kind it is physicochemical. As for the experimental part: A study was performed to determine the stability of various sulfonated peracids in aqueous solutions. The sulfonated peracids were compared under the same controlled conditions to determine how the structural differences of the selected peracids impacted stability. The sulfonated peracids studied included both mid-chain sulfonated and terminally sulfonated peracids.
Each peracid was tested at a concentration of 50 ppm under ambient conditions. Each individual solution was prepared from the corresponding peracid concentrate by adding it to a 0.05 M pH 5.0 citrate buffer, and adjusting the final solution pH to 5.0 with the addition of a small amount of caustic.
The peracid concentration over time was measured using a kinetic iodometric titration method. For comparison, 50 ppm peroxyacetic acid (POAA), at the same concentration and under the same conditions, was also included in the stability study. Based on the results seen in FIG. 7, the half time of each individual peracid was estimated and the results are summarized in the table below.

Data set [2] in a line: Contact angle study. In kind it is physicochemical. The settings on record: concentrate diluted 250 times with DI water (11-SPOUA 85 times). The procedure: A study was performed to measure the wetting properties of various sulfonated peracids in aqueous solutions, by measuring the contact angle of the individual solution on different surfaces.
A FTA32 Contact Angle Goniometer with image processing by FTA 32 software was used to measure the contact angle. The contact angle was measured on both stainless steel, and polypropylene surfaces. The peracid concentrates shown in the table below were diluted 250 times with DI water. However, the 11-SPOUA was diluted 85 times with DI water, given the lower levels of peracid precursor in the formula.
The results shown are the average of at least three contact angle measurements.

Data set [3] can be described thus: Coupling ability study, 1-octanoic acid by liquid chromatography. In kind it is physicochemical. The settings on record: for 1-Octanoic acid (ppm) coupled: 0.4 grams 1-octanoic acid added to 20 g peracid solution in hydrogen peroxide, filtered lower phase. As for the experimental part: A study was performed to determine the coupling/hydrotropic properties of various sulfonated peracids in aqueous solutions. The ability of the selected peracids to couple octanoic acid was measured.
Twenty grams (20 g) of each peracid solution was diluted into a beaker containing hydrogen peroxide. […] To each of these solutions, 0.4 grams of 1-octanoic acid was added. The octanoic acid initially floated to the tops of the solutions. The solutions were then stirred for 5-10 minutes with magnetic stir bars at 1,000 rpm. The solutions were then centrifuged for 20 minutes at 3,000-5,000 rpm. The lower phase of each solution was then collected. The lower phases were further clarified by filtration through 0.45 micron syringe filters. All of the filtrates appeared clear and homogenous. The filtered solutions were analyzed by liquid chromatography for 1-octaonic acid.

For data set [4] the following is noted: stated for comparison; cited from earlier work.
The conditions of data set [5]: 4 weeks, data from U.S. Pat. No. 5,994,284, cited from earlier work.
Data set [6] concerns B. subtilis. Put plainly: Sporicidal efficacy at 14 days, EN 13704. In kind it is cell-based. The settings on record: 30 ppm peroxyoctanoic acid alone; spore species not specified. The procedure:
The test method followed was according to European Standard EN 13704: Quantitative Suspension Test for the Evaluation of Sporicidal Activity of Chemical Disinfectants and Antiseptics Used in Food, Industrial, Domestic and Institutional Areas. Generally, a test suspension of bacterial spores in a solution of interfering substance, simulating clean conditions, was added to a prepared sample of the test formulation diluted in hard water. The mixture was maintained at the specific temperature and time desired. At this contact time, an aliquot is taken; the sporicidal action in this portion was immediately neutralized or suppressed by a validated method. The number of surviving bacterial spores in each sample was determined and the reduction in viable counts was calculated. A test was run to determine the stability and sporicidal efficacy of a composition of the present invention against spores. The composition tested included the sulfonated peroleic acid product, and an amount of peroxyoctanoic acid. The test method used was the European Standard EN 13704: Quantitative Suspension Test for the Evaluation of Sporicidal Activity of Chemical Disinfectants and Antiseptics Used in Food, Industrial, Domestic and Institutional Areas, described above.

The subject of data set [7] is Mycobacterium bovis BCG. In kind it is cell-based. The settings on record: 300 ppm POOA, pH 6.5, room temperature.
The nature of data set [8]: Powder storage stability at elevated temperature. In kind it is physicochemical. The note with it: about 140° F. The procedure: The compositions of the present invention also show enhanced stability compared to conventional peroxygen containing compositions. In some embodiments, the compositions of the present invention are stable for at least about 1 year at room temperature. In some embodiments, the compositions of the present invention are stable at about 100° F. for at least 30 days. In other embodiments, the compositions of the present invention are stable at about 140° F. for at least 30 days. For example, 11-sulfoundecanoic peroxyacid (Compound D) is stable as a powder system at about 140° F. for at least 30 days.

The nature of data set [9]: Storage stability, loss of active oxygen by titrimetry. In kind it is physicochemical. The note with it: 4 weeks. The procedure:
The stability of a sulfoperoxycarboxylic acid of the present invention, i.e., 11-sulfoundecaneperoxoic acid (Compound D), was compared to that of phthalimidoperoxyhexanoic acid (PAP). The stability data for the PAP sample were taken from U.S. Pat. No. 5,994,284, assigned to Clariant GmbH. Samples of the compound of the present invention were stored for four (4) weeks at various temperatures. The loss of active oxygen was measured by titrimetry.

The conditions of data set [10]: pH 4. From the text:
The issue of low solubility when using long chain peracids has been addressed by increasing the pH to above 7. […] Further, bleaching efficacy decreases proportionally with every pH unit increase over about 7.

Read-outs that look alike come from different tables or passages of the source. Bounds are passed on as bounds.

Regarding `O=C(CS(=O)(=O)O)OO` [Compound 2-SPOAA, 2-Sulfoperoxyacetic acid], the half-life at 50 ppm in data set [1] (buffer, pH 5) was 37 h. In addition, in data set [2], the “Contact Angle (degree), Polypropylene” value is listed as 75 degree and the “Contact Angle (degree), Stainless Steel” value worked out at 77 degree. Besides, the “1-Octanoic acid (ppm) coupled” value in data set [3] was found to be 160 ppm.

Turning to `CC(=O)OO` [POAA, peroxyacetic acid], the half-life at 50 ppm in [1] (50 ppm peracid, 0.05 M citrate buffer pH 5.0, ambient conditions, read-out: t1/2 (converted)) was 115 h. Moreover, the “percarboxylic acid formation constant (Keq)” value in [4] is on record as 2.70.

With `O=C(CCCCCS(=O)(=O)O)OO` [Compound 6-SPOHXA, 6-sulfoperoxyhexanoic acid], the half-life at 50 ppm in [1] (buffer, pH 5) was 88 h. In data set [2], the “Contact Angle (degree), Polypropylene” value worked out at 84 degree and the “Contact Angle (degree), Stainless Steel” value was determined as 77 degree. Besides, the “1-Octanoic acid (ppm) coupled” value in [3] came to 240 ppm.

For `O=C(CCCCCN1C(=O)c2ccccc2C1=O)OO` [PAP, phthalimidoperoxyhexanoic acid], the “Loss of Active Oxygen (%)” value in [5] (25 ° C.) was 1.4%; in [5] (40 ° C.), 2.0%; in [5] (50 ° C.), 12.0%.

With `CCCCCCCC(=O)OO` [POOA, peroxyoctanoic acid], in data set [6], the reduction of spores entry is on record as “did not result in a reduction”. In addition, the entries for the “Log Reduction” value in data set [7] (2.5 min) and in data set [7] (5 min) were 3.48 and below 4.31, respectively.

As for `O=C(CCCCCCCCCCS(=O)(=O)O)OO` [Compound D, 11-sulfoundecaneperoxoic acid], the “stable as a powder system” value in data set [8] is “at least 30 days”. The results for the “Loss of Active Oxygen (%)” value in data set [9] (38 ° C.), in [9] (50 ° C.) and in data set [9] (Room Temp.) were 7.9%, 15.7% and 0.78%, respectively. For the same compound, the half-life at 50 ppm in data set [1] (buffer, pH 5) is 91 h. Besides, in [10], the solubility result is on record as “about 1.3%”. Moreover, in [2], the “Contact Angle (degree), Polypropylene” value amounted to 77 degree. The “Contact Angle (degree), Stainless Steel” value in data set [2] came out at 72 degree. Besides, in [3], the “1-Octanoic acid (ppm) coupled” value was determined as 890 ppm. In data set [3] (20 g of peracid solution diluted into hydrogen peroxide), the “dissolution of peracid solution in hydrogen peroxide” value is listed as “dissolved only partially”.

The values are drawn from US8871807B2, “Detergents capable of cleaning, bleaching, sanitizing and/or disinfecting textiles including sulfoperoxycarboxylic acids” (Ecolab USA Inc., priority 2008, dated 2014).
